Data from article PMC7008064 (Drug Design, Development and Therapy, 2020).

Experiments:
HDAC1 = HDAC1 (Homo sapiens, UniProt Q13547); test: HDAC1 inhibitory activity; assay type: biochemical
[1] = tested on: neuroblastoma (SH-SY5Y) cell line; test: cells; assay type: cell-based; conditions: for IC50: Homo sapiens, SH-SY5Y, 48 h, read-out: IC50 SH-SY5Y
HDAC2 = HDAC2 (Homo sapiens, UniProt Q92769); test: HDAC2 inhibitory activity; assay type: biochemical
[2] = tested on: colorectal adenocarcinoma (HT-29) cell line; test: cells; assay type: cell-based; conditions: for IC50: Homo sapiens, HT-29, 48 h, read-out: IC50 HT-29
[3] = HDAC1 IC50 (as printed in docking Table 3), unrounded values repeated in Table 3
[4] = IC50 HDAC1, mean ± S.E. of three independent experiments
[5] = ratio of IC50 values vs Gefitinib
[6] = HDAC2 IC50 (as printed in docking Table 4), unrounded values repeated in Table 4
[7] = IC50 HDAC2, mean ± S.E. of three independent experiments

HDAC2, sequence (Q92769 whole entry): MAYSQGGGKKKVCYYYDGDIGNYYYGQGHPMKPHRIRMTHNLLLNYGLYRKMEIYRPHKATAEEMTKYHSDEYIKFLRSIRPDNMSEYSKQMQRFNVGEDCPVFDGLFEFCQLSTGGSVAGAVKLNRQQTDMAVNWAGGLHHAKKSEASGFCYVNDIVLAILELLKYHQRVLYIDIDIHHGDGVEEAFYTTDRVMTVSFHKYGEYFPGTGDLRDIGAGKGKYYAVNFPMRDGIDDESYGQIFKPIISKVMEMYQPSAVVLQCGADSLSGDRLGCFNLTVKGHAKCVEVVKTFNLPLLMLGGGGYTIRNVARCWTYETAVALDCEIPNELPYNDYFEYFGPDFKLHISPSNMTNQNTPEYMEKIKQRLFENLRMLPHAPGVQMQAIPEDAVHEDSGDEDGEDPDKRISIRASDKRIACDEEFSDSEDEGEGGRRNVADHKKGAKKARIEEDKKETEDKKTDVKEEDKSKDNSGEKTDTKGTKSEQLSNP
HDAC1, sequence (Q13547 whole entry): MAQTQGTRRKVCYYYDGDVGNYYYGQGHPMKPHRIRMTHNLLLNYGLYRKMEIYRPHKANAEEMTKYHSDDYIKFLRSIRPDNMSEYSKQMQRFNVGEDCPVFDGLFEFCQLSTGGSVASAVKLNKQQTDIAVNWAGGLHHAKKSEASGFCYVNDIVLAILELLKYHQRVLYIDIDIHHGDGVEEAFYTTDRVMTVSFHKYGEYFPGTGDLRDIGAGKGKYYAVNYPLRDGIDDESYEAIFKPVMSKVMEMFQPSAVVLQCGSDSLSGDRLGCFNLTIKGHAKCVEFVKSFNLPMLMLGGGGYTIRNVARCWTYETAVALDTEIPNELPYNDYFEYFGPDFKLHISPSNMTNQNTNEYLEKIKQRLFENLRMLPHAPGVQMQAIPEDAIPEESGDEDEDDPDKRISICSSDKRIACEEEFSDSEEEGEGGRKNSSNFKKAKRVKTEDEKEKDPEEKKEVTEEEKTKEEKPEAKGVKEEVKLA

| Compound | IC50 (HDAC1; [3]) [nM] | IC50 (HDAC1; [4]) [nM] | IC50 [1] [nM] | IC50 (HDAC2; [6]) [nM] | IC50 (HDAC2; [7]) [nM] | IC50 [2] [nM] | fold worsening of effectiveness against HDAC1 on shifting hydrazide ZBG from para (7a) to meta (8b) (HDAC1; 8b relative to 7a) [fold] | fold enhanced efficiency than reference drug Gefitinib against SH-SY5Y cells [1, 5] [fold] | times more potent than Gefitinib toward HT-29 cells [2, 5] [times] |
| --- | --- | --- | --- | --- | --- | --- | --- | --- | --- |
| Cc1nc(C)c(C(=O)Nc2ccc(C(=O)NN)cc2)nc1C [Compound 7a, N-(4-(Hydrazinecarbonyl)phenyl)-3,5,6-Trimethylpyrazine-2-Carboxamide] | 114 | 114.3 ± 0.44 | 1600 ± 40 | 53.7 | 53.7 ± 0.05 | 15100 ± 430 | – | 4.7 | – |
| Cc1nc(C)c(C(=O)Nc2ccc(CC(=O)NO)cc2)nc1C [Compound 7b, N-(4-(2-(Hydroxyamino)-2-Oxoethyl)phenyl)-3,5,6-Trimethylpyrazine-2-Carboxamide] | 2430 | 2434.7 ± 1.25 | 67000 ± 1910 | 132 | 132.3 ± 0.12 | 4570 ± 130 | – | – | – |
| Cc1nc(C)c(C(=O)Nc2ccc(CC(=O)NN)cc2)nc1C [Compound 7c, N-(4-(2-Hydrazinyl-2-Oxoethyl)phenyl)-3,5,6-Trimethylpyrazine-2-Carboxamide] | 264 | 263.5 ± 1.27 | 43400 ± 1210 | 205 | 205.4 ± 0.43 | 6110 ± 170 | – | – | – |

Continued, in another order:

| IC50 (HDAC1; [3]) [nM] | IC50 (HDAC1; [4]) [nM] | IC50 [1] [nM] | IC50 (HDAC2; [6]) [nM] | IC50 (HDAC2; [7]) [nM] | IC50 [2] [nM] | fold worsening of effectiveness against HDAC1 on shifting hydrazide ZBG from para (7a) to meta (8b) (HDAC1; 8b relative to 7a) [fold] | Compound | fold enhanced efficiency than reference drug Gefitinib against SH-SY5Y cells [1, 5] [fold] | times more potent than Gefitinib toward HT-29 cells [2, 5] [times] |
| --- | --- | --- | --- | --- | --- | --- | --- | --- | --- |
| 468 | – | 4270 ± 120 | 169 | 168.8 ± 0.13 | 1960 ± 50 | – | Cc1nc(C)c(C(=O)Nc2cccc(C(=O)NO)c2)nc1C [Compound 8a, N-(3-(Hydroxycarbamoyl)phenyl)-3,5,6-Trimethylpyrazine-2-Carboxamide] | – | 2.5 |
| 1800 | 1800.1 ± 0.45 | 28500 ± 800 | 113 | 112.9 ± 0.09 | 3250 ± 90 | 15.7 | Cc1nc(C)c(C(=O)Nc2cccc(C(=O)NN)c2)nc1C [Compound 8b, N-(3-(Hydrazinecarbonyl)phenyl)-3,5,6-Trimethylpyrazine-2-Carboxamide] | – | – |
